One test concerns RPMI 8226 cells. The experiment in a line: Antiproliferative assay (XTT, 72 h). The class given is cell-based, human. As to conditions: for IC50: RPMI 8226 cells, 72 h, XTT, mean ± SD, n = 3.
Another test relates to RPMI 8226/BTZ100 cells. The experiment in a line: cells. Conditions: for IC50: read-out: IC50 Value Antiproliferative Activity RPMI 8226/BTZ100. The format is cell-based, human.
Test [1] concerns 3D co-culture spheroids containing RPMI 8226 cells and mesenchymal stem cells (MSC) in a 5:1 ratio. The experiment in a line: Antiproliferative assay in 3D co-culture spheroids (CellTiter-Glo 3D, 48 h). The class given is cell-based, human. As to conditions: RPMI 8226 + MSC 5:1 spheroids, mean ± SD, n = 3. On the procedure:
The multiple myeloma human plasma cells RPMI 8226 were purchased from American Type Culture Collection (ATCC, Manassas, VA, USA) and cultured in RPMI 1640 medium (Gibco, Paisley, UK) supplemented with 50 µg/mL streptomycin sulfate, 50 U/mL penicillin G sodium salt (Gibco, Grand Island, NY, USA) and 10% fetal bovine serum (FBS) (Biowest, Nuaillé, France). […] Human MSC from the bone marrow were purchased from PromoCell and were cultured in Mesenchymal Stem Cell Growth Medium 2 (PromoCell, Heidelberg, Germany) supplemented with 100 μg/mL streptomycin sulfate and 100 U/mL penicillin G sodium salt.
RPMI 8226 cells and MSC were mixed in a 5:1 ratio. The cell mixture was centrifuged, and medium containing 20% collagen I (Gibco) adjusted to pH 7 was added to the cell pellet. Five μL drops were plated in each well of an ice-cold 96-well ultra-low attachment U-bottom plate (Corning, Kennebunk, MA, USA) and the plate was incubated for 30 min at 37 °C and 5% CO2 atmosphere. After the incubation, 200 μL of RPMI 1640 medium (Gibco) supplemented with 50 µg/mL streptomycin sulfate, 50 U/mL penicillin G sodium salt (Gibco) and 10% FBS (Biowest) was added to each well. The 3D spheroids were formed after 48 h.
RPMI 8226 and RPMI 8226/BTZ100 cells were seeded in 96-well plates (Costar, Kennebunk, MA, USA) at a density of 15,000 cells per well and directly treated for 72 h with the various compounds using increasing concentrations (0.31–2000 nM). […] Following the treatment, 100 μL of medium was carefully removed from each well and collagenase (1.5 μL of a 100 mg/mL solution, Sigma) was added. The plate was shaken at 37 °C for 10 min at 350 rpm. Then, 100 μL of CellTiter-Glo 3D reagent (Promega, Fitchburg, WI, USA) was added to each well. The plate was incubated for 5 min at 37 °C under agitation at 250 rpm, followed by 25 min at room temperature without agitation. Finally, the luminescence was measured using a Cytation 3 plate reader (BioTek). The percentage of cell proliferation and calculation of the IC50 value were determined as previously described. Each compound was tested in triplicate in three independent experiments.

Test [2] can be described thus: Drug combination of Ent and BTZ, antiproliferative effect (Combenefit, CompuSyn). As to conditions: read-out: IC50 in drug combination experiment. The format is cell-based. The method, then:
Combinations were evaluated using Combenefit data analysis.
Statistical analysis was performed in GraphPad Prism 9 (GraphPad) using one-way ANOVA for the proteasome inhibition assay. Combenefit (Cancer Research UK Cambridge Institute, Cambridge, UK) and CompuSyn software were used for drug combination analyses. The CI was calculated through the Chou-Talalay method using Compusyn. Data are expressed as mean ± standard deviation (SD).

Another test has as its target T1, 26S proteasome (Homo sapiens, UniProt P28074).
T1 sequence (P28074 60-263): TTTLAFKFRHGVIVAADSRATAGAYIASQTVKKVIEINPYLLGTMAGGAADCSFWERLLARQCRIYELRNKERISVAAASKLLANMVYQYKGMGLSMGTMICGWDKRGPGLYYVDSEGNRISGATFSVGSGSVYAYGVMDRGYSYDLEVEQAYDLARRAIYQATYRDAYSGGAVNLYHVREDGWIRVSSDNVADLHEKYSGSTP
The experiment in a line: Proteasome inhibitory activity (Suc-LLVY-amc) in RPMI 8226 cell lysate. The format is biochemical. On the procedure: RPMI 8226 cells (1 × 10^6 cells/mL) were collected, centrifuged, and washed twice with cold PBS (Gibco). The supernatant was discarded, and 200 μL of ice-cold lysis buffer (NP40 cell lysis buffer (Invitrogen, Eugene, OR, USA), supplemented with 1 mM PMSF (Sigma) and protease inhibitor cocktail (Sigma), was added to the pellet. Cells were kept on ice for 30 min and vortexed every 10 min. Samples were then centrifuged at 4 °C for 10 min at 16,000× g. Supernatant containing the proteins was collected. Protein quantification was performed using the Coomassie (Bradford) Protein Assay Kit (ThermoFisher, Waltham, MA, USA) following the manufacturer instructions. In each well of a 96-well black plate (ThermoFisher), 10 µg of proteins were mixed with assay buffer (50 mM Tris-HCl, pH 7.5, 40 mM KCl, 5 mM MgCl2, 0.5 mM ATP, 1 mM DTT, 0.5 mg/mL BSA) in 180 µL total volume. […] The plate was then incubated for 30 min at 37 °C. After incubation, the reaction was started by adding the fluorometric peptide substrate Suc-LLVY-amc (Bio-Techne, Minneapolis, MN, USA) at a final concentration of 100 µM, except for the blank wells. Following 1 h incubation at 37 °C in the dark, the fluorescence signal was red (excitation: 380 nm, emission: 440–460 nm) using a Cytation 3 plate reader (BioTek). The percentage of 26S proteasome activity was measured by comparing the fluorescence of the sample treated with the vehicle control wells and multiplied by 100. The IC50 value was calculated as mentioned above, and each compound was tested in triplicate in three independent experiments.

For a further test, the system named is HDAC. The test can be described thus: HDAC inhibitory activity in RPMI 8226 cells (MAL substrate, UHPLC-MS). The class given is cell-based, human. Conditions: 10 µM, 8 h. On the procedure: RPMI 8226 cells were seeded in 96-well plates (Costar) at a density of 15,000 cells per well in 25 µL of medium containing the HDAC substrate N-(4-methyl-7-aminocoumarinyl)-Nα-(t-butoxycarbonyl)-Nω-acetyllysineamide (21 µM, MAL, Sigma). The cells were directly treated with the compounds at 10 µM or with Ent (0.4–250 µM) for 8 h to obtain a final volume of 50 µL. […] Following the incubation, the reaction was stopped by adding 10 µL of 6X RIPA buffer, supplemented with protease inhibitor (Sigma). Then, 160 µL of cold acetonitrile were added and the plate was placed for 10 min at −80 °C. The plate was centrifuged at 5000× g for 10 min at 4 °C, and the supernatant was transferred into a UHPLC-adapted 96-well plate (Nunc 96-well plate conical bottom, ThermoFisher) and sealed. The substrate (MAL) and its deacetylated product (dMAL) were measured using a UHPLC-MS method as previously described. The percentage of HDAC inhibition is given by 100 − [(tested sample × 100/control sample)], and the dose-response curve of Ent was established.

[3] abbreviates: 26S proteasome in RPMI 8226 cell lysate, 30 min preincubation, Suc-LLVY-amc 100 µM, mean ± SD, n = 3; read-out: IC50 Value PI Activity.

Results on 4 molecules are retold here after publication PMC9920246, “Entinostat-Bortezomib Hybrids against Multiple Myeloma” (Molecules, 2023).

Each structure is given as a SMILES string. Read-outs that look alike come from different tables or passages of the source. Where only a bound is given, the exact number is not on record here.

Take `CC(C)C[C@H](NC(=O)[C@H](Cc1ccccc1)NC(=O)c1cnccn1)B(O)O` [BTZ, bortezomib]: the IC50 in the test on RPMI 8226 cells (Homo sapiens) turned out to be 2.1 ± 0.4 nM; in the test on RPMI 8226/BTZ100 cells (Homo sapiens, RPMI-8226, 72 h), 245 ± 11.1 nM; in test [1] (Homo sapiens) it was 6.4 ± 1.6 nM; in test [2], 3.3 nM. Also, the “Increased resistance (RPMI 8226/BTZ100 vs. RPMI 8226)” value with RPMI 8226/BTZ100 cells is listed as 116.8 fold.
Consider `CC(C)C[C@H](NC(=O)[C@@H](Cc1ccccc1)NC(=O)c1cnc(C(=O)Nc2ccccc2N)cn1)B1OC2CC3CC(C3(C)C)[C@]2(C)O1` (stereo partly drawn) [Compound 3, N^2-(2-aminophenyl)-N^5-((2R)-1-(((1R)-3-methyl-1-((3aS)-3a,5,5-trimethylhexahydro-4,6-methanobenzo[d][1,3,2]dioxaborol-2-yl)butyl)amino)-1-oxo-3-phenylpropan-2-yl)pyrazine-2,5-dicarboxamide], for which the IC50 was 9.5 ± 1.4 nM with RPMI 8226 cells (Homo sapiens); 158 ± 15.8 nM in the test on RPMI 8226/BTZ100 cells (Homo sapiens, RPMI-8226, 72 h); 13.1 ± 6.9 nM in test [1] (Homo sapiens); 27.2 ± 6.2 nM on 26S proteasome (setting [3]). Also, the “Increased resistance (RPMI 8226/BTZ100 vs. RPMI 8226)” value with RPMI 8226/BTZ100 cells (ratio of IC50 in resistant vs. parental cells) came to 16.6 fold. In addition, the “Inhibition of HDAC activity” value with HDAC is 33%.
Turning to `CC(C)C[C@H](NC(=O)[C@@H](Cc1ccc(N(CCCl)CCCl)cc1)NC(=O)c1cnc(C(=O)Nc2ccccc2N)cn1)B1OC2CC3CC(C3(C)C)[C@]2(C)O1` (stereo partly drawn) [Compound 11, N^2-(2-aminophenyl)-N^5-((2R)-3-(4-(bis(2-chloroethyl)amino)phenyl)-1-(((1R)-3-methyl-1-((3aS)-3a,5,5-trimethylhexahydro-4,6-methanobenzo[d][1,3,2]dioxaborol-2-yl)butyl)amino)-1-oxopropan-2-yl)pyrazine-2,5-dicarboxamide], the IC50 is 22.9 ± 2.6 nM with RPMI 8226 cells; 462 ± 107 nM in the test on RPMI 8226/BTZ100 cells (RPMI 8226 cells resistant to BTZ, 72 h, XTT, mean ± SD, n = 3); 39.9 ± 12.1 nM in test [1]; above 50 nM at 26S proteasome (read-out: IC50 Value PI Activity; 26S proteasome in RPMI 8226 cell lysate, 30 min preincubation, Suc-LLVY-amc 100 µM, mean ± SD, n = 3). In addition, the “Fold less active than compound 3 in RPMI 8226 cells” value in the test on RPMI 8226 cells (compared to compound 3) was around 2.4 times. Further, the “Inhibition of HDAC activity” value with HDAC is on record as 25%.
With `CC(C)C[C@H](NC(=O)[C@@H](Cc1ccccc1)NC(=O)Cc1ccc(C(=O)Nc2ccc(F)cc2N)cc1)B1OC2CC3CC(C3(C)C)[C@@]2(C)O1` (stereo partly drawn) [Compound 7, N-(2-amino-4-fluorophenyl)-4-(2-(((2R)-1-(((1R)-3-methyl-1-((3aR)-3a,5,5-trimethyl-hexahydro-4,6-methanobenzo[d][1,3,2]dioxaborol-2-yl)butyl)amino)-1-oxo-3-phenylpropan-2-yl)amino)-2-oxoethyl)benzamide], the IC50 was determined as 31.4 ± 1.7 nM in the test with RPMI 8226 cells (Homo sapiens); 831 ± 139 nM in the test with RPMI 8226/BTZ100 cells (Homo sapiens, RPMI-8226, 72 h); 89.3 ± 13.6 nM in test [1] (Homo sapiens); 7.2 ± 1.7 nM at 26S proteasome (setting [3]). Also, the “Inhibition of HDAC activity” value with HDAC is 37%.
